# Results reported in ChEMBL document CHEMBL4507258 (2021).
# Key:
# D(4) dopamine receptor = D(4) dopamine receptor (Homo sapiens, UniProt P21917); experiment: GPCRScan assay: inhibition of D4; set-up: radioligand conc. used [nm] 0.6 – 1.7, parental cells Stable HEK
# [1] = biological target: Alpha-2C adrenergic receptor (Homo sapiens, UniProt P18825); experiment: GPCRScan assay: inhibition of Alpha2C; set-up: radioligand conc. used [nm] 0.5 – 1.0, parental cells stable MDCK
# [2] = test system: Tyrosine-protein kinase ABL1 (Homo sapiens), P00519 [E255K]; details: Compound concentration 1000.0 nM
# [3] = test system: ALK tyrosine kinase receptor (Homo sapiens), Q9UM73 [C1156Y]; details: Compound concentration 1000.0 nM
# [4] = biological target: Ankyrin repeat and protein kinase domain-containing protein 1 (Homo sapiens) (UniProt Q8NFD2); details: Compound concentration 1000.0 nM
# [5] = biological target: NUAK family SNF1-like kinase 1 (Homo sapiens) (UniProt O60285); details: Compound concentration 1000.0 nM
# [6] = biological target: Cyclin-dependent kinase 19 (Homo sapiens) (UniProt Q9BWU1); details: Compound concentration 1000.0 nM
# [7] = test system: Epidermal growth factor receptor (Homo sapiens), P00533 [UNDEFINED MUTATION]; details: Compound concentration 1000.0 nM
# Epidermal growth factor receptor (Homo sapiens), P00533 [UNDEFINED MUTATION], sequence (P00533 whole entry, looked up, change not shown): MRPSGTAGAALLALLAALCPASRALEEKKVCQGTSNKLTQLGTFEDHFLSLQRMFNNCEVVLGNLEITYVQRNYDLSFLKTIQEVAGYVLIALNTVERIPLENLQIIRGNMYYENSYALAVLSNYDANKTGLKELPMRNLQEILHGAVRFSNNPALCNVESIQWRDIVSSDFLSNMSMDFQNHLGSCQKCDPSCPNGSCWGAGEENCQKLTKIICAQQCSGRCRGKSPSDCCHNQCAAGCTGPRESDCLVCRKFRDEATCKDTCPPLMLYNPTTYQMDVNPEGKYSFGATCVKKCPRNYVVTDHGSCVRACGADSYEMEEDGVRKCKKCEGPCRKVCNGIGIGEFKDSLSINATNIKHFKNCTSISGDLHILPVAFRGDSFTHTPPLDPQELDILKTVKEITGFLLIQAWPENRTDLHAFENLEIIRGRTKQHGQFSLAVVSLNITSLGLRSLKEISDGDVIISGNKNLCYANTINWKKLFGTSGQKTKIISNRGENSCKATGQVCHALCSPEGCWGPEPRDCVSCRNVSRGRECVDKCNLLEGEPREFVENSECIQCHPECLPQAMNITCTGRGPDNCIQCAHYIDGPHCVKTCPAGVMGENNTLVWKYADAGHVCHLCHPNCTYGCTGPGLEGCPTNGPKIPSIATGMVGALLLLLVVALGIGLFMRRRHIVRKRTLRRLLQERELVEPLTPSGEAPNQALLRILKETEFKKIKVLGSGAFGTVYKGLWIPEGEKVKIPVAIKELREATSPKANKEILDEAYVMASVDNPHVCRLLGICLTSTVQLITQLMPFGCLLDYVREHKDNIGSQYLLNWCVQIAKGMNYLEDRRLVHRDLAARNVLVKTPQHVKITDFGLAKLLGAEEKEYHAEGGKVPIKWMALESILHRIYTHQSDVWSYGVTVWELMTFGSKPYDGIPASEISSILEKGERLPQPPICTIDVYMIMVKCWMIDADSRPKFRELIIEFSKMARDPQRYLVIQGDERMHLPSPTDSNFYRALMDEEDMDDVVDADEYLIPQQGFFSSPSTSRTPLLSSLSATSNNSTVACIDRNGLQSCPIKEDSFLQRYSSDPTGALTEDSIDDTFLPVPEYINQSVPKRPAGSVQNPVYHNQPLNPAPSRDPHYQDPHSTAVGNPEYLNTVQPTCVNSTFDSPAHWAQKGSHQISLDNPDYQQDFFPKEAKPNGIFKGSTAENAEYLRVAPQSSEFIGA
# [8] = biological target: Ephrin type-A receptor 7 (Homo sapiens) (UniProt Q15375); details: Compound concentration 1000.0 nM
# [9] = biological target: Tyrosine-protein kinase ITK/TSK (Homo sapiens) (UniProt Q08881); details: Compound concentration 1000.0 nM
# [10] = test system: Mast/stem cell growth factor receptor Kit (Homo sapiens), P10721 [V559D,T670I]; details: Compound concentration 1000.0 nM
# Mast/stem cell growth factor receptor Kit (Homo sapiens), P10721 [V559D,T670I], sequence (P10721 whole entry V559D/T670I): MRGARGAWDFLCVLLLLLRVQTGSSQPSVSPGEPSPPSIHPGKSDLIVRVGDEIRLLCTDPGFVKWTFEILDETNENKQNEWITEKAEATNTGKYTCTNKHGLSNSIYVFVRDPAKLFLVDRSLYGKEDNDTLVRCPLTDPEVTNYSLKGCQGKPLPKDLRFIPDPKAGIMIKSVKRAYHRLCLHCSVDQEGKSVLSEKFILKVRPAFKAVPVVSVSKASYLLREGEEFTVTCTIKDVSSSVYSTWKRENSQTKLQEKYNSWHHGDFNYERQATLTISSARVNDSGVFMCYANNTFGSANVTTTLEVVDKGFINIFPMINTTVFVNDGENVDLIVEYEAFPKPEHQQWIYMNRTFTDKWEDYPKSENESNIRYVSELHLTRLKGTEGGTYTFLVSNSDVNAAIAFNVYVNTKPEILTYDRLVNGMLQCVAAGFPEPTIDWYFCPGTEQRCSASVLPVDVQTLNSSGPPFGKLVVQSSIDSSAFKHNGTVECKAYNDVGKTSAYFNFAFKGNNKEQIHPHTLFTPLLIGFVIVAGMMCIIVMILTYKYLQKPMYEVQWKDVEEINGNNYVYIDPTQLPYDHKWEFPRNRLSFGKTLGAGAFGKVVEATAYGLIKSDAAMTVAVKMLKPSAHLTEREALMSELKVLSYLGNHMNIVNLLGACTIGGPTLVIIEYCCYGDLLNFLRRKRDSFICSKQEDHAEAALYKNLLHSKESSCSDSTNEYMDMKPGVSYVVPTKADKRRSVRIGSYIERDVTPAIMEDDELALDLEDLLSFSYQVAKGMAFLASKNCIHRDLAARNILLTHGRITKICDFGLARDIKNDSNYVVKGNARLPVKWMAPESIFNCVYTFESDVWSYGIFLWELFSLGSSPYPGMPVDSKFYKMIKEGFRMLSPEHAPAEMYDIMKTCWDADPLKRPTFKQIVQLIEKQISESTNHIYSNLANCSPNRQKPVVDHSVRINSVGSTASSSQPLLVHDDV
# [11] = biological target: Leucine-rich repeat serine/threonine-protein kinase 2 (Homo sapiens) (UniProt Q5S007); details: Compound concentration 1000.0 nM
# [12] = biological target: Leukocyte tyrosine kinase receptor (Homo sapiens) (UniProt P29376); details: Compound concentration 1000.0 nM
# [13] = biological target: Dual specificity mitogen-activated protein kinase kinase 2 (Homo sapiens) (UniProt P36507); details: Compound concentration 1000.0 nM
# [14] = biological target: Misshapen-like kinase 1 (Homo sapiens) (UniProt Q8N4C8); details: Compound concentration 1000.0 nM
# [15] = biological target: MAP kinase-interacting serine/threonine-protein kinase 2 (Homo sapiens) (UniProt Q9HBH9); details: Compound concentration 1000.0 nM
# [16] = biological target: Mitogen-activated protein kinase kinase kinase 11 (Homo sapiens) (UniProt Q16584); details: Compound concentration 1000.0 nM
# [17] = biological target: Mitogen-activated protein kinase 13 (Homo sapiens) (UniProt O15264); details: Compound concentration 1000.0 nM
# Mitogen-activated protein kinase 13 (Homo sapiens), sequence (O15264 whole entry, canonical isoform): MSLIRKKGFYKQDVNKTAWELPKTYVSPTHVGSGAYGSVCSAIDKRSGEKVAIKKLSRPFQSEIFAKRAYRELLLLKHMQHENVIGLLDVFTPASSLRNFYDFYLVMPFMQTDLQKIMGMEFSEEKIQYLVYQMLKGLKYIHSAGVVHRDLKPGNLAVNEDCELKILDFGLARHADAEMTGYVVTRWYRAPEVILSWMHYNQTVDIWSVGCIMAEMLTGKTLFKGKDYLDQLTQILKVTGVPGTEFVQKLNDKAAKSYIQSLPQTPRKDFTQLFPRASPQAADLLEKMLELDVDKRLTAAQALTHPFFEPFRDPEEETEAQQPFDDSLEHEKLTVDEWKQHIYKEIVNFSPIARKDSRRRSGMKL
# [18] = biological target: Phosphatidylinositol 4,5-bisphosphate 3-kinase catalytic subunit delta isoform (Homo sapiens) (UniProt O00329); details: Compound concentration 1000.0 nM
# Phosphatidylinositol 4,5-bisphosphate 3-kinase catalytic subunit delta isoform (Homo sapiens), sequence (O00329 whole entry, canonical isoform): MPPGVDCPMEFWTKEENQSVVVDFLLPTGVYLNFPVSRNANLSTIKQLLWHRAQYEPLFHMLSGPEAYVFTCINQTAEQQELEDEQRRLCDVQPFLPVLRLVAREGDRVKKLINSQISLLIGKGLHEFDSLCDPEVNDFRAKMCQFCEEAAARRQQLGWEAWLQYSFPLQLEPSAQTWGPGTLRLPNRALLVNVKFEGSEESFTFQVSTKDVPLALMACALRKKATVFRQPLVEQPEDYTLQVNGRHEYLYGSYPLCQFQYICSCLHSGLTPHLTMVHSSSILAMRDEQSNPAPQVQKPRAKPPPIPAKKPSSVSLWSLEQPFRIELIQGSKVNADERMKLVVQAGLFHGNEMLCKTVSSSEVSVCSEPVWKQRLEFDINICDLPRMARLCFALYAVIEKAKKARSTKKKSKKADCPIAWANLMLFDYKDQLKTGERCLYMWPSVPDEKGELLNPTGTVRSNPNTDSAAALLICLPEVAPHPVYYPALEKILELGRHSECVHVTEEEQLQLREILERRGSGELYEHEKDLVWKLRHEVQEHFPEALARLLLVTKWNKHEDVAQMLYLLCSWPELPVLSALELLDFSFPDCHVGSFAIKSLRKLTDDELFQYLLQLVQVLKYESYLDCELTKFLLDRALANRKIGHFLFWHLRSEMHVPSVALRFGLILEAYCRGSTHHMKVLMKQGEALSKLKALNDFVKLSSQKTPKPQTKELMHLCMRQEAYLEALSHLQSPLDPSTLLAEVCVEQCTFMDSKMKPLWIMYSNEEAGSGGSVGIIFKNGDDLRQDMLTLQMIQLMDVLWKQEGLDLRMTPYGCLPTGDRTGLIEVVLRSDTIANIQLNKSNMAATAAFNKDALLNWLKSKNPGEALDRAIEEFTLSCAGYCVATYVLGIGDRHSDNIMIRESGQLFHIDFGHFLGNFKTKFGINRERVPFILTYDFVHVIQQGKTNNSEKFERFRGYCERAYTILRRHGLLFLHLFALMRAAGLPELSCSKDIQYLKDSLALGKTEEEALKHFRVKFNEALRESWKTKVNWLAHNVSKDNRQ
# [19] = biological target: cAMP-dependent protein kinase catalytic subunit alpha (Homo sapiens) (UniProt P17612); details: Compound concentration 1000.0 nM
# [20] = biological target: Membrane-associated tyrosine- and threonine-specific cdc2-inhibitory kinase (Homo sapiens) (UniProt Q99640); details: Compound concentration 1000.0 nM
# [21] = biological target: cGMP-dependent protein kinase 1 (Homo sapiens) (UniProt Q13976); details: Compound concentration 1000.0 nM
# cGMP-dependent protein kinase 1 (Homo sapiens), sequence (Q13976 whole entry): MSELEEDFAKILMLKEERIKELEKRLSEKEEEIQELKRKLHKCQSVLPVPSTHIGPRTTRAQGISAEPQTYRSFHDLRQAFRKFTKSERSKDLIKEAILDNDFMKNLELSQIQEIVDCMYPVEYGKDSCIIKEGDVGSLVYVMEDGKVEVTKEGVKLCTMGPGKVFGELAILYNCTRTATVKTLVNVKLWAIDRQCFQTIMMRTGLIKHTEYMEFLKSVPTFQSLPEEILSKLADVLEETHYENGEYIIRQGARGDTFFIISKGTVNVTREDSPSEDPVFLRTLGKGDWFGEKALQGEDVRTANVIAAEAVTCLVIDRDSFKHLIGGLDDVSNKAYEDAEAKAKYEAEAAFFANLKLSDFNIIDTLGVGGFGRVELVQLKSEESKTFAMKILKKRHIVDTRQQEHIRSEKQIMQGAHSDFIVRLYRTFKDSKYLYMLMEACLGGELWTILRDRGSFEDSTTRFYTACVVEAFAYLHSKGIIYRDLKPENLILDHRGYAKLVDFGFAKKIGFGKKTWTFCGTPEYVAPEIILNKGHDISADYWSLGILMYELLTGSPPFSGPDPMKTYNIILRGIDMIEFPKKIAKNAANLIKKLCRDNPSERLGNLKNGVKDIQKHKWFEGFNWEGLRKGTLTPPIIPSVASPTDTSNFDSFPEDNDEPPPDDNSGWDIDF
# [22] = biological target: Rho-associated protein kinase 1 (Homo sapiens) (UniProt Q13464); details: Compound concentration 1000.0 nM
# [23] = biological target: Ribosomal protein S6 kinase alpha-3 (Homo sapiens) (UniProt P51812); details: Compound concentration 1000.0 nM
# [24] = biological target: Tyrosine-protein kinase Srms (Homo sapiens) (UniProt Q9H3Y6); details: Compound concentration 1000.0 nM
# [25] = biological target: SRSF protein kinase 1 (Homo sapiens) (UniProt Q96SB4); details: Compound concentration 1000.0 nM
# [26] = biological target: Vascular endothelial growth factor receptor 2 (Homo sapiens) (UniProt P35968); details: Compound concentration 1000.0 nM
# [27] = biological target: Serine/threonine-protein kinase 32A (Homo sapiens) (UniProt Q8WU08); details: Compound concentration 1000.0 nM
# Serine/threonine-protein kinase 32A (Homo sapiens), sequence (Q8WU08 whole entry): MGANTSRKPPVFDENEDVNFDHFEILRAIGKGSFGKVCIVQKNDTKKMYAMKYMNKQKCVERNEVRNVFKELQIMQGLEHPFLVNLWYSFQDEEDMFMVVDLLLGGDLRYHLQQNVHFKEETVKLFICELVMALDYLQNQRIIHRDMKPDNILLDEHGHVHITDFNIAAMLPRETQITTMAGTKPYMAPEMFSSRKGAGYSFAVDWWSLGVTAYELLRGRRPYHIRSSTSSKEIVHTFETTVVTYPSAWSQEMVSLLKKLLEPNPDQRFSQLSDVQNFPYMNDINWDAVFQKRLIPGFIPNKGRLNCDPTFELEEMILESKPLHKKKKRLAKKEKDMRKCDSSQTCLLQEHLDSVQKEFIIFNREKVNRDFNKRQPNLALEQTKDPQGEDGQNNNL
# [28] = biological target: 5-hydroxytryptamine receptor 2C (Homo sapiens) (UniProt P28335); details: Compound concentration 10.0 uM
# [29] = biological target: Histamine H4 receptor (Homo sapiens) (UniProt Q9H3N8); details: Compound concentration 10.0 uM
# Histamine H4 receptor (Homo sapiens), sequence (Q9H3N8 whole entry): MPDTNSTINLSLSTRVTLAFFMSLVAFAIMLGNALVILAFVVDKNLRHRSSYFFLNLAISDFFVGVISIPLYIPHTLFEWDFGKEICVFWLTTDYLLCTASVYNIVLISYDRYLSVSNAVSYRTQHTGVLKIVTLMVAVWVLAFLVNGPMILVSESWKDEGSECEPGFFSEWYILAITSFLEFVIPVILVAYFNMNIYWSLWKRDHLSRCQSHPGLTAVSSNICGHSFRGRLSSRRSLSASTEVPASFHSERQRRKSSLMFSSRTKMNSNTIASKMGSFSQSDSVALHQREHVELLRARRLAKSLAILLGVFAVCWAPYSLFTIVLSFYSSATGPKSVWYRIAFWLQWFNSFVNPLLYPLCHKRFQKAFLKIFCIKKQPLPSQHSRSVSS
# [30] = biological target: Alpha-2C adrenergic receptor (Homo sapiens) (UniProt P18825); details: Compound concentration 10.0 uM
# [31] = biological target: Adenosine receptor A1 (Homo sapiens) (UniProt P30542); experiment: Adenosine A1 receptor (h) CEREP ligand profiling; details: Compound concentration 10.0 uM
# [32] = biological target: Platelet-derived growth factor receptor (Homo sapiens) (UniProt P09619+P16234); experiment: Platlet-derived growth factor receptor CEREP ligand profiling; format: protein-complex assay; details: Compound concentration 10.0 uM
# [33] = biological target: Interleukin-1 beta (Homo sapiens) (UniProt P01584); experiment: Interleukin-1beta CEREP ligand profiling; details: Compound concentration 10.0 uM
# [34] = biological target: T1, Muscarinic acetylcholine receptor M2 (Homo sapiens) (UniProt P08172); experiment: Muscarinic M2 receptors (h) CEREP ligand profiling; details: Compound concentration 10.0 uM
# T1 sequence (whole entry): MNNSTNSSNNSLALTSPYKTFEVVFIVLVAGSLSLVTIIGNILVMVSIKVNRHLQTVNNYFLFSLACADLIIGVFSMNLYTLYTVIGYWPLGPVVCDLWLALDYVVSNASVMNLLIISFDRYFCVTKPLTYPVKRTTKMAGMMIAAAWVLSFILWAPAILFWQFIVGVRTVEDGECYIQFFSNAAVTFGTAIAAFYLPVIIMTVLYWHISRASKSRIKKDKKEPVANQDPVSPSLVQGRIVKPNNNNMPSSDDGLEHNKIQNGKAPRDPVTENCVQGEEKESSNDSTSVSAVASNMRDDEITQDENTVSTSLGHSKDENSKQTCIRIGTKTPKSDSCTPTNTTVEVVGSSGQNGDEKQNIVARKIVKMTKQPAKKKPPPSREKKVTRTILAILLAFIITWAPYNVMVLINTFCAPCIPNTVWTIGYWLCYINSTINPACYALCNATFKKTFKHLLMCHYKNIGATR
# [35] = biological target: Substance-P receptor (Homo sapiens) (UniProt P25103); experiment: Neurokinin-1 receptor (h) CEREP ligand profiling; details: Compound concentration 10.0 uM
# [36] = biological target: 5-hydroxytryptamine receptor 7 (Homo sapiens) (UniProt P34969); experiment: 5-Hydroxytryptamine7 (h) CEREP ligand profiling; details: Compound concentration 10.0 uM
# Sodium channel (site 2) = Sodium channel (site 2) (Homo sapiens, UniProt P35498+P35499+Q01118+Q14524+Q15858+Q99250+Q9NY46+Q9UI33+Q9UQD0+Q9Y5Y9); experiment: Na+ channel (site 2) CEREP ligand profiling; format: protein assay; details: compound concentration 10 uM
Compound,residual activity [2],residual activity [3],residual activity [4],residual activity [5],residual activity [6],residual activity [7],residual activity [8],residual activity [9],residual activity [10],residual activity [11],residual activity [12],residual activity [13],residual activity [14],residual activity [15],residual activity [16],residual activity [17],residual activity [18],residual activity [19],residual activity [20],residual activity [21],also measured
CCCCN(CCCC)C(=O)CN1C[C@@H](c2cc(OC)c3c(c2)OCO3)[C@H](C(=O)O)[C@H]1CC(C)(C)CCC [A-545],93.5%,95.4%,95.7%,82.4%,99.6%,88.4%,100%,100%,79%,65.9%,94.1%,98%,100%,96.5%,100%,100%,87%,81.9%,100%,100%,Ki (D(4) dopamine receptor): 5.5 nM; Ki [1]: 5770 nM; residual activity [22]: 100%; residual activity [23]: 99.2%; residual activity [24]: 90.6%; residual activity [25]: 62.5%; residual activity [26]: 88.1%; residual activity [27]: 100%; inhibition [28]: 15.7%; inhibition [29]: 4.1%; inhibition [30]: 56.1%
CCCCN(CCCC)C(=O)CN1C[C@H](c2cc(OC)c3c(c2)OCO3)[C@@H](C(=O)O)[C@@H]1CC(C)(C)CCC [ABT-546],83.7%,100%,55.1%,100%,100%,94.3%,100%,100%,100%,38%,100%,69.7%,88.4%,83%,100%,100%,100%,100%,100%,100%,inhibition [31]: 23%; inhibition [32]: < 10%; inhibition [33]: < 10%; inhibition [34]: < 10%; inhibition [35]: < 10%; inhibition [36]: < 10%; inhibition at 10 µM (Sodium channel (site 2)): < 10% (not active); residual activity [22]: 90.4%; residual activity [23]: 100%; residual activity [24]: 69.6%; residual activity [25]: 100%; residual activity [26]: 88.7%; residual activity [27]: 100%; inhibition [29]: -0.606%
